According to patent publication US20080183070A1, “Multi-mode medical device system with thermal ablation capability and methods of using same” (Wisconsin Alumni Research Foundation, priority 2007, published 2008):
One block for each compound: values may come before it.

Tests used:
[1] = Diffusion of a fluorescent probe in swollen gelatin gel by FRAP; assay type: physicochemical
Source text: To assess the stability of DTPA[Gd(III)] in the gelatin coating, the diffusion of a fluorescence probe in gelatin was studied by the technique of fluorescence recovery after photobleaching (FRAP). The instrument and data analysis scheme are described in Kim, S. H. and Yu, H., J. Phys. Chem. 1992, 96, 4034, which is hereby fully incorporated by reference. Fluorescein was used as the fluorescence probe due, in part, to its molecular size being roughly the same as that of DTPA[Gd(III)].
The focus of the study was to examine the possible retardation effects of gelatin concentration and cross-link density on the diffusion, which was determined at room temperature, i.e., below the gel point of gelatin. The diffusion of fluorescein probe slows down with the increase of gelatin concentration. The diffusion coefficient decreases from 1.5×10-10 to 9×10-12 m2s−1 when the concentration of gelatin increases from 9% to 40%. […] Accordingly, the probe diffusion is more likely controlled by the concentration of gelatin rather than the cross-link density. On the other hand, the cross-link density may determine the swelling ratio of gelatin, i.e., the concentration of gelatin in aqueous solution. […]

[2] = MR visibility test of the functional gelatin coating on PE rod in saline and yogurt (Example 14); conditions: after soaking in water for 12 hours
Description: Samples having the above formulations were transferred to a glass tube and kept in a water bath at 35° C. A bare PE rod (5 cm in length) was then dipped into the solution, and then removed. The rod was then cooled to room temperature to allow chill-setting of the gelatin solution and to form the coating on the rod surface. The same procedure was repeated to overcoat additional layers of gel. The final dry thickness of gel-coating was about 60 μm.
The gelatin coatings were dried in air while being chemically cross-linked by BVSM. The dried and cross-linked samples were then soaked in distilled water for 12 hours. Soaking each sample in distilled water may remove the DTPA[Gd(III)] that was not physically or chemically constrained by the cross-linked network of gelatin overcoat. Because the DTPA[Gd(III)] complexes were not chemically linked to the gelatin chains, most of them would be expected to diffuse out of the coating when soaked in water, whereas some of DTPA[Gd(III)] may be confined by the crystal domains in gelatin or by hydrogen bonding between gelatin chains and DTPA. In any event, after the soaking, the gelatin coating was dried again in air before MRI test.
The MR visibility of the samples prepared as outlined above, was tested in two media: saline and yogurt. […]

Time to diffuse out of the gelatin coating ([1]; coating thickness 60 μm, diffusion coefficient 9×10-12 m2s−1): about 67 seconds
SMILES: O=C(O)CN(CCN(CC(=O)O)CC(=O)O)CCN(CC(=O)O)CC(=O)O [DTPA, diethylenetriaminepentaacetic acid]

Fluorescence signal remaining in gelatin films ([1]; films soaked in water for 18 hours, including non-cross-linked films): still fluorescence signal
SMILES: O=C1OC2(c3ccc(O)cc3Oc3cc(O)ccc32)c2ccccc21 [fluorescein]

SMILES: O=C([O-])CN(CCN(CC(=O)[O-])CC(=O)O)CCN(CC(=O)[O-])CC(=O)O.[Gd+3] [DTPA[Gd(III)], gadolinium-diethylene triamine pentaacetic acid]
Retention in the gelatin coating [2]: some fraction of DTPA[Gd(III)] remained in the gel
